Source: publication PMC3894558, “Chemical signatures and new drug targets for gametocytocidal drug development” (Scientific Reports, 2014)
Like-named read-outs stand apart in the source and are kept apart here.

System: P. falciparum 3D7 gametocytes
Assay: alamarBlue gametocyte viability assay, strain 3D7
Format: cell-based, Plasmodium falciparum
Conditions: Malaria Box; for Max Resp: DMSO set at 0%, 100 nM epoxomicin set at -100%; for Curve Class / IC50: stages III-V 3D7 gametocytes; for IC50: 11 concentrations, 1:3 dilution; call rule not given here

CCN(CC)CCn1c(=N)n(CC(O)c2ccc(Cl)c(Cl)c2)c2ccccc21.Cl (stereo not drawn) [MMV000248]
Max Resp: -99%
Curve Class: -1.1
IC50 (read-out: IC50): 1.48 µM

CCOc1ccc(Nc2c3ccccc3nc3ccccc23)cc1.Cl [MMV000304]
Max Resp: -95%
Curve Class: -2.1
IC50 (read-out: IC50): 16.6 µM

Cc1ccc2nc(C)cc(Nc3cccc(C(F)(F)F)c3)c2c1.Cl [MMV000326]
Max Resp: -52%
Curve Class: -2.2
IC50: Inactive

Br.CCn1c2c(c(=N)c3c1CCC3)CCCC2 [MMV000340]
Max Resp: -49%
Curve Class: -2.2
IC50: Inactive

O=C(O)C(=O)O.Oc1ccc(Br)cc1CN1CCN(Cc2cccc(F)c2)CC1 [MMV000356]
Max Resp: -72%
Curve Class: -1.2
IC50 (read-out: IC50): 2.64 µM

CCOc1ccc2c(c1)CN(Cc1ccc(Cl)cc1)CO2 [MMV000443]
Max Resp: -54%
Curve Class: -1.2
IC50 (read-out: IC50): 1.32 µM

CCCCCn1c(=N)n(CC(O)COc2cccc(C)c2)c2ccccc21.Cl (stereo not drawn) [MMV000444]
Max Resp: -107%
Curve Class: -1.1
IC50 (read-out: IC50): 8.33 µM

CCCCCCn1c(=N)n(CC(O)COc2cccc(C)c2)c2ccccc21.Cl (stereo not drawn) [MMV000445]
Max Resp: -110%
Curve Class: -1.1
IC50 (read-out: IC50): 7.43 µM

CN(C)CCCNc1c2ccccc2nc2ccccc12 [MMV000448]
Max Resp: -105%
Curve Class: -1.1
IC50 (read-out: IC50): 1.87 µM

CCOc1cc2c(cc1OCC)C(c1cc(Cl)ccc1O)NCC2 (stereo not drawn) [MMV000478]
Max Resp: -76%
Curve Class: -1.2
IC50 (read-out: IC50): 4.18 µM

CCOc1cc2c(cc1OCC)C(c1cc(Cl)c(O)c(OCC)c1)NCC2 (stereo not drawn) [MMV000481]
Max Resp: -81%
Curve Class: -1.1
IC50 (read-out: IC50): 5.26 µM

CCOc1cc2c(cc1OCC)C(c1cc(C)c(O)c(C)c1)NCC2.Cl (stereo not drawn) [MMV000483]
Max Resp: -82%
Curve Class: -1.1
IC50 (read-out: IC50): 5.26 µM

CCN(CC)c1cc(C)c2cc(NC(=O)c3cccc(OC)c3)ccc2n1 [MMV000498]
Max Resp: -20%
Curve Class: 4
IC50: Inactive

CCCN(CCC)CCCNC(=O)c1cc2c(-c3ccc(OC)c(OC)c3)nn(C)c2s1 [MMV000561]
Max Resp: -52%
Curve Class: -2.2
IC50: Inactive

CCc1ccc(Nc2cc(C)c3ccc(O)cc3n2)cc1.Cl [MMV000570]
Max Resp: -29%
Curve Class: -1.2
IC50 (read-out: IC50): 0.469 µM

COc1ccc(-c2cc(=O)oc3c4c(ccc23)OCN(Cc2ccc(F)cc2)C4)cc1 [MMV000604]
Max Resp: -55%
Curve Class: -2.2
IC50 (read-out: IC50): 7.43 µM

COc1ccc(C(O)(CCC(C)C)C(CN2CCOCC2)c2ccc(Cl)cc2)cc1.Cl (stereo not drawn) [MMV000617]
Max Resp: -31%
Curve Class: -2.4
IC50: Inactive

CCCCC(O)(c1ccc(Cl)cc1)C(CN1CCOCC1)c1ccc(Cl)cc1.Cl (stereo not drawn) [MMV000619]
Max Resp: -51%
Curve Class: -2.2
IC50: Inactive

CC(O)(c1ccc(Cl)cc1)C(CN1CCCCC1)c1ccccc1.Cl (stereo not drawn) [MMV000620]
Max Resp: -78%
Curve Class: -2.2
IC50 (read-out: IC50): 9.35 µM

CCCCCCC(O)(c1ccc(F)cc1)C(CN1CCOCC1)c1ccccc1.Cl (stereo not drawn) [MMV000621]
Max Resp: -59%
Curve Class: -2.2
IC50 (read-out: IC50): 37.2 µM

CC1CCCCN1CCCNC(=O)c1ccc2c(c1)sc1nc(-c3ccc(F)cc3)cn12 (stereo not drawn) [MMV000634]
Max Resp: -84%
Curve Class: -2.1
IC50 (read-out: IC50): 10.5 µM

COc1ccc(NC(=O)C2c3ccccc3C(=O)N(CC(C)C)C2c2cccs2)cc1Cl (stereo not drawn) [MMV000642]
Max Resp: -75%
Curve Class: -2.2
IC50 (read-out: IC50): 9.35 µM

COc1ccccc1CNC(=O)C1c2ccccc2C(=O)N(CC(C)C)C1c1cccs1 (stereo not drawn) [MMV000648]
Max Resp: -46%
Curve Class: -2.2
IC50: Inactive

CCOc1ccccc1CNC(=O)C1c2ccccc2C(=O)N(CC(C)C)C1c1cccs1 (stereo not drawn) [MMV000653]
Max Resp: -49%
Curve Class: -2.2
IC50: Inactive

COc1ccc(NC(=O)C2c3ccccc3C(=O)N(CC(C)C)C2c2cccs2)cc1 (stereo not drawn) [MMV000662]
Max Resp: -81%
Curve Class: -1.1
IC50 (read-out: IC50): 4.18 µM

Cc1ccc(C2CC(C(F)(F)F)n3nc(C(=O)N4CCN(C(c5ccccc5)c5ccccc5)CC4)cc3N2)cc1 (stereo not drawn) [MMV000699]
Max Resp: -70%
Curve Class: -2.2
IC50 (read-out: IC50): 29.6 µM

CCOC(=O)c1cnc2ccc(OC)cc2c1Nc1ccc(N2CCN(C)CC2)cc1 [MMV000704]
Max Resp: -69%
Curve Class: -2.2
IC50 (read-out: IC50): 23.5 µM

Cc1ccnc(NC(c2cccc(OCc3ccccc3)c2)c2ccc3cccnc3c2O)c1 (stereo not drawn) [MMV000720]
Max Resp: -112%
Curve Class: -2.1
IC50 (read-out: IC50): 13.2 µM

Oc1ccc(-c2nc(-c3ccc4oc5ccc(-c6[nH]c(-c7ccc(O)cc7)nc6-c6ccccc6)cc5c4c3)c(-c3ccccc3)[nH]2)cc1 [MMV000753]
Max Resp: -68%
Curve Class: -2.2
IC50 (read-out: IC50): 18.7 µM

Oc1c(CN2CCN(c3ccccc3F)CC2)cc(Br)c2cccnc12 [MMV000760]
Max Resp: -91%
Curve Class: -1.1
IC50 (read-out: IC50): 3.72 µM

CCCOCc1cc(CN2CCN(c3cccc(Cl)c3)CC2)c(O)c2ncccc12 [MMV000787]
Max Resp: -98%
Curve Class: -1.1
IC50 (read-out: IC50): 8.33 µM

CC(C)OCc1cc(CN2CCN(c3cccc(Cl)c3)CC2)c(O)c2ncccc12 [MMV000788]
Max Resp: -97%
Curve Class: -1.1
IC50 (read-out: IC50): 8.33 µM

Cl.OC(CNCc1ccccc1)Cn1c2ccccc2c2ccccc21 (stereo not drawn) [MMV000839]
Max Resp: -97%
Curve Class: -1.1
IC50 (read-out: IC50): 8.33 µM

OC(CNC1CCCC1)Cn1c2ccccc2c2ccccc21 (stereo not drawn) [MMV000848]
Max Resp: -93%
Curve Class: -1.1
IC50 (read-out: IC50): 2.09 µM

Cc1ccc(NC(=O)Nc2cccc(Cl)c2)cc1F [MMV000911]
Max Resp: -36%
Curve Class: -2.2
IC50: Inactive

COc1ccc2c(c1OC)C(=O)N1c3ccccc3N=C(c3ccc(C)cc3)CC21 (stereo not drawn) [MMV000917]
Max Resp: -63%
Curve Class: -2.2
IC50 (read-out: IC50): 29.6 µM

COc1ccc(Nc2nc(NCc3ccccc3)c3ccccc3n2)cc1 [MMV000963]
Max Resp: -86%
Curve Class: -2.1
IC50 (read-out: IC50): 9.35 µM

O=C1CC(O)(C(F)(F)C(F)(F)F)Oc2ccccc21 (stereo not drawn) [MMV000972]
Max Resp: -32%
Curve Class: -1.4
IC50 (read-out: IC50): 0.743 µM

CN1CCN(c2nc(Nc3ccc(O)cc3)nc3ccccc23)CC1.Cl [MMV000986]
Max Resp: -93%
Curve Class: -1.1
IC50 (read-out: IC50): 6.62 µM

Cc1ccc(Nc2nc(NCCO)c3ccccc3n2)cc1C [MMV001038]
Max Resp: -71%
Curve Class: -1.2
IC50 (read-out: IC50): 3.32 µM

OCCNc1nc(Nc2ccc(Cl)c(Cl)c2)nc2ccccc12 [MMV001041]
Max Resp: -63%
Curve Class: -2.2
IC50 (read-out: IC50): 14.8 µM

CC(C)c1ccc(CNCC(O)c2ccccc2)cc1.Cl (stereo not drawn) [MMV001049]
Max Resp: -76%
Curve Class: -1.2
IC50 (read-out: IC50): 2.35 µM

CCOc1cccc2sc(N(Cc3cccnc3)C(=O)C3CCCCC3)nc12 [MMV001230]
Max Resp: -26%
Curve Class: 4
IC50: Inactive
